In patent US20220040141A1, “ULTRAPURE PHENOL COMPOSITIONS” (priority 2018, published 2022):

Experiments:
[1] = Earlier CBD products (isolate powder, liquid CBD/vitamin E mixture, MCT emulsion) as used orally; type: in vivo; conditions: particularly relieving stiffness in joints
Text: Prior to preparing the compositions described herein, other CBD products were made, which include food products, including beverages, and mixtures with multiple components, such as an oil/liquid form that is taken directly from a dropper. The products can be flavored. A CBD isolate powder, which is a high purity CBD, can have powerful, and instant benefits. A water soluble CBD/vitamin E mixture can be included in food and drink such as cold pressed juice. […] However, the powder was difficult to work with and dose.
(§1) By mixing with fractionated coconut oil, or medium-chain triglyceride (MCT), a stable emulsion can be formed, which simplifies oral administration of CBD. Some products can mix the full spectrum CBD oil with alcohol or MCT oil, which is known as a tincture. […] For example, a batch of CBD/MCT oil was made using a ratio of 100 mg/ml, which allowed delivery as a spray to the mouth of 20 mg CBD per spray (one spray per serving). In another experiment, a second batch of oil targeted at 33 mg/ml, which targeted 6-7 mg per spray (2-3 sprays per serving). Performance can continue to be less impressive than the CBD powder.

[2] = Physical properties of CBD and its oil compositions; type: physicochemical; conditions: isolate powder, about 99% pure CBD
Text: The highest purity CBD is known as an isolate. The clear oil, or distillate, goes through another purification process, where it is converted into powder using a solvent, for example, hexane, at low heat.
as §1

[3] = increase of 1 mMol in plasma caprylic acid levels; cited from earlier work

| SMILES | anti-inflammatory effect [1] | water solubility [2] | increase of ketone body production [3] |
| --- | --- | --- | --- |
| C=C(C)[C@@H]1CCC(C)=C[C@H]1c1c(O)cc(CCCCC)cc1O [CBD isolate powder, cannabidiol] | exhibited anti-inflammatory properties | not water soluble |  |
| CCCCCCCC(=O)O [caprylic acid] |  |  | five-fold |
